Measurements reported in patent publication US8178506B2, “Oligomeric compounds and compositions for use in modulation of small non-coding RNAs” (Regulus Therapeutics Inc., priority 2003, dated 2012).
In the oligonucleotide strings, read from the 5' end, every base follows the letter of its sugar. An asterisk marks phosphorothioate; unmarked linkages are phosphodiester. Other units and linkages are bracketed, terminal groups are in braces. A string of capitals states the bases alone. e = 2'-O-(2-methoxyethyl) (MOE); [5mC] = 5-methylcytosine

Assays:
HuVECs = test: Endothelial tube formation assay in HuVECs; conditions: 75 nM oligomeric compound
adipocytes = test: Triglyceride accumulation assay in adipocytes; assay type: cell-based, human
PPARγ = PPARγ mRNA expression in adipocytes (real-time PCR); assay type: cell-based, human; conditions: for PPAR gamma (mRNA expression): adipocytes, 250 nM oligomeric compound, day nine post-transfection, relative to control (1.0); for PPAR gamma mRNA: differentiating adipocytes transfected with oligomeric compound
aP2 = aP2 mRNA expression in adipocytes (real-time PCR); assay type: cell-based, human; conditions: for AP2 (mRNA expression): adipocytes, 250 nM oligomeric compound, day nine post-transfection, relative to control (1.0); for AP2 mRNA: differentiating adipocytes transfected with oligomeric compound
Glut4 = Glut4 mRNA expression in adipocytes (real-time PCR); assay type: cell-based, human; conditions: for Glut4 (mRNA expression): adipocytes, 250 nM oligomeric compound, day nine post-transfection, relative to control (1.0); for GLUT4 mRNA: differentiating adipocytes transfected with oligomeric compound
HSL = HSL mRNA expression in adipocytes (real-time PCR); assay type: cell-based, human; conditions: for HSL (mRNA expression): adipocytes, 250 nM oligomeric compound, day nine post-transfection, relative to control (1.0); for HSL mRNA: differentiating adipocytes transfected with oligomeric compound
[1] = adipocytes, 250 nM oligomeric compound, relative to control (1.0), Table 15
[2] = adipocytes, 250 nM oligomeric compound, relative to control (1.0), Table 16
[3] = differentiating adipocytes transfected with oligomeric compound

Substance | % Activity Relative to UTC (tube formation) (HuVECs; Table 58) | TG (triglyceride accumulation) (adipocytes; [1]) | TG (triglyceride accumulation) (adipocytes; [2]) | PPAR gamma (mRNA expression) (PPARγ; Table 15) | PPAR gamma (mRNA expression) (PPARγ; Table 16) | AP2 (mRNA expression) (aP2; Table 15) | AP2 (mRNA expression) (aP2; Table 16) | Glut4 (mRNA expression) (Glut4; Table 15) | Glut4 (mRNA expression) (Glut4; Table 16) | HSL (mRNA expression) (HSL; Table 15) | HSL (mRNA expression) (HSL; Table 16) | TG (triglyceride accumulation) (adipocytes; [3]) | PPAR gamma mRNA (PPARγ) | AP2 mRNA (aP2) | GLUT4 mRNA (Glut4) | HSL mRNA (HSL) | % Activity Relative to UTC (tube formation) (HuVECs; Table 59)
327925 (antisense eT*eA*eG*e[5mC]*eT*eG*eG*eT*eT*eG*eA*eA*eG*eG*eG*eG*eA*e[5mC]*e[5mC]*eA*eA) [compound 327925] | 44.4% | 0.72 | 0.63 | 0.60 | 0.83 | 0.77 | 0.77 | 1.99 | 0.61 | 0.78 | 0.75 |  |  |  |  |  | 
327927 (antisense eT*eG*eT*eA*eA*eA*e[5mC]*e[5mC]*eA*eT*eG*eA*eT*eG*eT*eG*e[5mC]*eT*eG*e[5mC]*eT*eA) [compound 327927] | 59.3% |  |  |  |  |  |  |  |  |  |  | 125 percentage of untreated control (UTC) | 108 percentage of untreated control (UTC) | 114 percentage of untreated control (UTC) | 120 percentage of untreated control (UTC) | 120 percentage of untreated control (UTC) | 
327928 (antisense eA*eA*e[5mC]*e[5mC]*eG*eA*eT*eT*eT*e[5mC]*eA*eG*eA*eT*eG*eG*eT*eG*e[5mC]*eT*eA*eG) [compound 327928] | 37.0% |  |  |  |  |  |  |  |  |  |  | 45 percentage of untreated control (UTC) | 57 percentage of untreated control (UTC) | 77 percentage of untreated control (UTC) | 39 percentage of untreated control (UTC) | 52 percentage of untreated control (UTC) | 
327931 (antisense eA*eA*e[5mC]*e[5mC]*eA*eT*eA*e[5mC]*eA*eA*e[5mC]*e[5mC]*eT*eA*e[5mC]*eT*eA*e[5mC]*e[5mC]*eT*e[5mC]*eA) [compound 327931] | 103.7% |  | 1.11 |  | 1.56 |  | 1.00 |  | 1.37 |  | 0.99 |  |  |  |  |  | 
327933 (antisense eA*eA*eG*eG*eG*eA*eT*eT*e[5mC]*e[5mC]*eT*eG*eG*eG*eA*eA*eA*eA*e[5mC]*eT*eG*eG*eA*e[5mC]) [compound 327933] | 59.3% | 1.48 |  | 1.52 |  | 1.46 |  | 2.52 |  | 1.35 |  | 127 percentage of untreated control (UTC) | 100 percentage of untreated control (UTC) | 82 percentage of untreated control (UTC) | 127 percentage of untreated control (UTC) | 132 percentage of untreated control (UTC) | 
327934 (antisense eG*eG*eT*eA*e[5mC]*eA*eA*eT*e[5mC]*eA*eA*e[5mC]*eG*eG*eT*e[5mC]*eG*eA*eT*eG*eG*eT) [compound 327934] | 51.9% | 0.99 | 0.62 | 0.97 | 0.72 | 1.20 | 0.66 | 1.22 | 0.44 | 1.02 | 0.64 |  |  |  |  |  | 
327941 (antisense eA*eA*e[5mC]*e[5mC]*e[5mC]*eA*e[5mC]*e[5mC]*eG*eA*e[5mC]*eA*eG*e[5mC]*eA*eA*eT*eG*eA*eA*eT*eG*eT*eT) [compound 327941] | 74.1% | 1.31 | 0.42 | 0.80 | 0.86 | 1.78 | 0.88 | 2.07 | 0.44 | 1.73 | 0.81 |  |  |  |  |  | 
327951 (antisense e[5mC]*eA*e[5mC]*eA*eA*eA*e[5mC]*e[5mC]*eA*eT*eT*eA*eT*eG*eT*eG*e[5mC]*eT*eG*e[5mC]*eT*eA) [compound 327951] |  |  |  |  |  |  |  |  |  |  |  | 76 percentage of untreated control (UTC) | 84 percentage of untreated control (UTC) | 91 percentage of untreated control (UTC) | 81 percentage of untreated control (UTC) | 100 percentage of untreated control (UTC) | 73.3%
327954 (antisense eA*e[5mC]*eA*eA*eA*eG*eT*eT*e[5mC]*eT*eG*eT*eG*eA*eT*eG*e[5mC]*eA*e[5mC]*eT*eG*eA) [compound 327954] |  | 0.58 |  | 0.73 |  | 0.95 |  | 0.92 |  | 1.03 |  |  |  |  |  |  | 53.3%
327956 (antisense e[5mC]*eA*e[5mC]*eA*eG*eT*eT*eG*e[5mC]*e[5mC]*eA*eG*e[5mC]*eT*eG*eA*eG*eA*eT*eT*eA) [compound 327956] |  |  |  |  |  |  |  |  |  |  |  | 80 percentage of untreated control (UTC) | 91 percentage of untreated control (UTC) | 102 percentage of untreated control (UTC) | 69 percentage of untreated control (UTC) | 90 percentage of untreated control (UTC) | 46.7%
327967 (antisense eA*e[5mC]*eT*eG*eT*eA*e[5mC]*eA*eA*eA*e[5mC]*eT*eA*e[5mC]*eT*eA*e[5mC]*e[5mC]*eT*e[5mC]*eA) [compound 327967] |  |  | 0.90 |  | 0.89 |  | 0.86 |  | 0.56 |  | 0.97 |  |  |  |  |  | 93.3%
